Measurements: US20170280720A1, “ARGININE […] INHIBITORS AND USES THEREOF” (EPIZYME, INC., priority 2014, published 2017)

Tests used:
Human CARM1 (PRMT4) = target: T1, Human CARM1 (PRMT4) (Homo sapiens, UniProt Q86X55); experiment: CARM1 biochemical assay (3H-SAM Flashplate, peptide substrate); conditions: read-out: CARM1_ IC50
T1 construct: Flag-CARM1-His; made in house; host or cells: HEK 293F cells (BacMam baculovirus, pFastBacMam)
T1 sequence (Q86X55 2-585 isoform Q86X55-1): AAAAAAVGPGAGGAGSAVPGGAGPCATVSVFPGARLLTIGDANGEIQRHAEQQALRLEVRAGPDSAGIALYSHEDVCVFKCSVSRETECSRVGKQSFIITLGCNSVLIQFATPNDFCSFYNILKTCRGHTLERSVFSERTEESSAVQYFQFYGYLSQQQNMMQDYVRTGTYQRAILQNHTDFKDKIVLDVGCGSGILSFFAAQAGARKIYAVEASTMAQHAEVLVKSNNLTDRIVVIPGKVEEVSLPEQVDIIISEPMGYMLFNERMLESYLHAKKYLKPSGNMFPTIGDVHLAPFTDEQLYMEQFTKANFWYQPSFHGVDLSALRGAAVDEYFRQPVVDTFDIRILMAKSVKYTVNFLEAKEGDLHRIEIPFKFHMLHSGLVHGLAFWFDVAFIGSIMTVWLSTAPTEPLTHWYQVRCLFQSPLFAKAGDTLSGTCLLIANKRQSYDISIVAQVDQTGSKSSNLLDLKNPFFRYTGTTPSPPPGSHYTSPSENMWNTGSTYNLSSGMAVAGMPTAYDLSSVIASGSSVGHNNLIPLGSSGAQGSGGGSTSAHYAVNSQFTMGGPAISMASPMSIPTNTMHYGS
Text: S-adenosylmethionine (SAM), S-adenosylhomocysteine (SAH), bicine, Tween20, dimethylsulfoxide (DMSO), bovine skin gelatin (BSG), sodium butyrate and Tris(2-carboxyethyl)phosphine hydrochloride solution (TCEP) were purchased from Sigma-Aldrich at the highest level of purity possible. ^3H-SAM was purchase from American Radiolabeled Chemicals with a specific activity of 80 Ci/mmol. 384-well streptavidin Flashplates were purchased from PerkinElmer.
Peptide representative of human histone H3 residues 16-30 was synthesized with an N-terminal linker-affinity tag motif and a C-terminal amide cap by 21st Century Biochemicals. The peptide was purified by high-performance liquid chromatography (HPLC) to greater than 95% purity and confirmed by liquid chromatography mass spectrometry (LC-MS). The sequence was Biot-Ahx-[…]-amide and contained a monomethylated arginine at position 26 (SEQ ID NO.: 14).
Human CARM1 (PRMT4) (NM_199141.1) transcript clone was amplified from an HEK 293 cDNA library, incorporating a flanking 5′ sequence encoding a FLAG tag ([…]) (SEQ ID NO.: 6) fused directly to Ala 2 of CARM1 and 3′ sequence encoding a hexa His sequence ([…]) (SEQ ID NO.: 15) fused directly to Ser 608. The gene sequence encoding isoform1 containing a deletion of amino acids 539-561 was amplified subsequently and subcloned into pFastBacMam (Viva Biotech).
Recombinant baculovirus were generated according to Bac-to-Bac kit instructions (Life Technologies). […] Infections were carried out at 37° C. for 48 hours, harvested by centrifugation, and stored at −80° C. for purification.
Column was washed with 500 mM NaCl in buffer A and Flag-CARM1-His was eluted with 200 ug/ml FLAG peptide in buffer A. Pooled fractions were dialyzed in 20 mM Tris, 150 mM NaCl, 5% glycerol and 1 mM DTT, pH 7.8. The purity of recovered protein was 94.
General Procedure for CARM1 Enzyme Assays on Peptide Substrates.
The assays were all performed in a buffer consisting of 20 mM Bicine (pH=7.6), 1 mM TCEP, 0.005% BSG, and 0.002% Tween 20, prepared on the day of use. Compounds in 100% DMSO (1 ul) were spotted into a polypropylene 384-well V-bottom plates (Greiner) using a Platemate Plus outfitted with a 384-channel head (Thermo Scientific). DMSO (1 ul) was added to Columns 11, 12, 23, 24, rows A-H for the maximum signal control and 1 ul of SAH, a known product and inhibitor of CARM1, was added to columns 11, 12, 23, 24, rows I-P for the minimum signal control. A cocktail (40 ul) containing the CARM1 enzyme was added by Multidrop Combi (Thermo-Fisher). The compounds were allowed to incubate with CARM1 for 30 min at room temperature, then a cocktail (10 ul) containing ^3H-SAM and peptide was added to initiate the reaction (final volume=51 ul). The final concentrations of the components were as follows: CARM1 was 0.25 nM, ^3H-SAM was 30 nM, peptide was 250 nM, SAH in the minimum signal control wells was 1 mM, and the DMSO concentration was 2%. The assays were stopped by the addition of non-radiolabeled SAM (10 ul) to a final concentration of 300 uM, which dilutes the ^3H-SAM to a level where its incorporation into the peptide substrate is no longer detectable. 50 ul of the reaction in the 384-well polypropylene plate was then transferred to a 384-well Flashplate and the biotinylated peptides were allowed to bind to the streptavidin surface for at least 1 hour before being washed once with 0.1% Tween20 in a Biotek ELx405 plate washer. The plates were then read in a PerkinElmer TopCount plate reader to measure the quantity of ^3H-labeled peptide bound to the Flashplate surface, measured as disintegrations per minute (dpm) or alternatively, referred to as counts per minute (cpm).
Where dpm=disintegrations per minute, cmpd=signal in assay well, and min and max are the respective minimum and maximum signal controls.
Where top and bottom are the normally allowed to float, but may be fixed at 100 or 0 respectively in a 3-parameter fit. […]

[1] = tested on: asymmetric di-methyl PABP1 in RKO cells; experiment: In Cell Western (ICW) for asymmetric di-methyl PABP1 and DNA content in RKO cells; format: cell-based; conditions: Homo sapiens, RKO, In Cell Western
Text: RKO adherent cells were purchased from ATCC (American Type Culture Collection), Manassas, Va., USA. DMEM/Glutamax medium, penicillin-streptomycin, heat inactivated fetal bovine serum, 0.05% trypsin and D-PBS were purchased from Life Technologies, Grand Island, N.Y., USA. Odyssey blocking buffer, 800CW goat anti-rabbit IgG (H+L) antibody, and Licor Odyssey infrared scanner were purchased from Licor Biosciences, Lincoln, Nebr., USA. Mono-methyl arginine antibody was purchased from Cell Signaling Technology, Danvers, Mass., USA. Methanol was purchased from VWR, Franklin, Mass., USA. 10% Tween 20 was purchased from KPL, Inc., Gaithersburg, Md., USA. […] was purchased from Biostatus Limited, Leicestershire, UK. RKO adherent cells were maintained in growth medium (DMEM/Glutamax medium supplemented with 10% v/v heat inactivated fetal bovine serum and 100 units/mL penicillin-streptomycin) and cultured at 37° C. under 5% CO2. Cell Treatment, in Cell Western (ICW) for Detection of Asymmetric Di-Methyl PABP1 and DNA Content. RKO cells were seeded in assay medium at a concentration of 30,000 cells per mL to a poly-D-lysine coated 384 well culture plate (BD Biosciences 356697) with 50 μL per well. Compound (100 nL) from a 96-well source plate was added directly to 384 well cell plate. Plates were incubated at 37° C., 5% CO2 for 48 hours. After two days of incubation, plates were brought to room temperature outside of the incubator for ten minutes and blotted on paper towels to remove cell media. Cells were fixed for 20 minutes at room temperature by adding 50 μl of 8% PFA followed by aspiration of supernatant with the Biotek EL406 plate washer. Cells were then permeabilized by addition of 50 μL of ice cold 100% methanol directly to each well and incubated for 30 min at room temperature. After 30 min, plates were transferred to a Biotek EL406 plate washer and washed 2 times with 100 μL per well of wash buffer (1×PBS). Next 60 μL per well of Odyssey blocking buffer (Odyssey Buffer with 0.1% Tween 20 (v/v)) were added to each plate and incubated 1 hour at room temperature. Blocking buffer was removed and 20 μL per well of primary antibody was added (asymmetric-methyl PABP1) diluted 1:400 in Odyssey buffer with 0.1% Tween 20 (v/v)) and plates were incubated overnight (16 hours) at 4° C. Plates were washed 5 times with 100 μL per well of wash buffer. Next 20 μL per well of secondary antibody was added (1:800 800CW goat anti-rabbit IgG (H+L) antibody, 1:2000 DRAQS in Odyssey buffer with 0.1% Tween 20 (v/v)) and incubated for 1 hour at room temperature. The plates were washed 5 times with 100 μL per well wash buffer then 2 times with 100 μL per well of water. Plates were allowed to dry at room temperature then imaged on the Licor Odyssey machine which measures integrated intensity at 700 nm and 800 nm wavelengths. Both 700 and 800 channels were scanned. Calculations: First, the ratio for each well was determined by: Each plate included fourteen control wells of DMSO only treatment (minimum inhibition) as well as fourteen control wells for maximum inhibition treated with 20 μM of a reference compound. The average of the ratio values for each control type was calculated and used to determine the percent activation for each test well in the plate. Reference compound was serially diluted three-fold in DMSO for a total of nine test concentrations, beginning at 20 μM. Percent inhibition was determined and IC50 curves were generated using triplicate wells per concentration of compound.

SMILES | IC50 (Human CARM1 (PRMT4)) [µM] | IC50 [1] [µM]
CNCCN(C)Cc1cccc(-c2cc(C(=O)NCc3nccn3C)c3cnn(C(C)C)c3n2)c1 [Compound 212] | 0.0249 | 1.8
CNCCN(C)Cc1cccc(-c2cc(N3CCCC3)c3cnn(C(C)C)c3n2)c1 [Compound 214] | 0.0266 | 20
CC(C)n1ncc2c(C(=O)NCc3nccn3C)cc(-c3cccc(CN(C)CCN)c3)nc21 [Compound 215] | 0.0291 | 2.24
CN(CCN)Cc1cccc(-c2cc(C(=O)NC3CCOCC3)cc(N(C)CC3CC3)c2)c1 [Compound 217] | 0.03 | 5.69
CC(C)n1ncc2c(C(=O)NCc3ccn(C)n3)cc(-c3cccc(CN(C)CCN)c3)nc21 [Compound 220] | 0.0325 | 1.24
CC(C)n1ncc2c(C(=O)NCC(F)(F)F)cc(-c3cccc(CN(C)CCN)c3)nc21 [Compound 222] | 0.0344 | 3.82
CNCCN(C)Cc1cccc(-c2cc(C(=O)NCc3cn(C)cn3)c3cnn(C(C)C)c3n2)c1 [Compound 223] | 0.0353 | 3.47
CC(C)n1ncc2c(C(=O)N(C)Cc3cccnc3)cc(-c3cccc(CN(C)CCN)c3)nc21 [Compound 224] | 0.0375 | 8.47
CCn1ncc2c(C(=O)NCC3CCOCC3)cc(-c3cccc(CN(C)CCNC)c3)nc21 [Compound 227] | 0.0399 | 4.74
CNCCN(C)Cc1cccc(-c2cc(C(=O)NC3CC3)c3cnn(C(C)C)c3n2)c1 [Compound 228] | 0.0412 | 1.91
CCN(C)C(=O)c1cc(-c2cccc(CN(C)CCN)c2)nc2c1cnn2C(C)C [Compound 230] | 0.0414 | 7.63
CNCCN(C)Cc1cccc(-c2cc(C(=O)NCc3cnc[nH]3)c3cnn(C(C)C)c3n2)c1 [Compound 231] | 0.0422 | 20
CNCCN(C)Cc1cccc(-c2cc(C(=O)NCc3cccc4ccnn34)c3cnn(C(C)C)c3n2)c1 [Compound 232] | 0.0424 | 1.51
CNCCN(C)Cc1cccc(-c2cc(C(=O)NC3CCOCC3)c3cnn(C(C)C)c3n2)c1 [Compound 233, 1-isopropyl-6-(3-((methyl(2-(methylamino)ethyl)amino)methyl)phenyl)-N-(tetrahydro-2H-pyran-4-yl)-1H-pyrazolo[3,4-b]pyridine-4-carboxamide] | 0.0426 | 0.843
CNCCN(C)Cc1cccc(-c2cc(C(=O)NC3CCOC3)c3cnn(C(C)C)c3n2)c1 (stereo not shown) [Compound 234] | 0.0433 | 2.76
CNCCN(C)Cc1cccc(-c2cc(-c3ccsc3)c3cnn(C(C)C)c3n2)c1 [Compound 235] | 0.0458 | 20
CC(C)n1ncc2c(C(=O)N(C)Cc3ccccc3)cc(-c3cccc(CNCCN)c3)nc21 [Compound 238] | 0.0481 | 20
CCCc1cc(-c2cccc(CN(C)CCNC)c2)nc2c1cnn2C(C)C [Compound 239] | 0.049 | 20
Cc1c(N(C)CC2CC2)cc(-c2cccc(CN(C)CCN)c2)cc1N1CCOCC1 [Compound 241] | 0.051 | 5.69
Cc1c(C(=O)NC2CCOCC2)cc(-c2cccc(CN(C)CCN)c2)cc1N(C)CC1CC1 [Compound 243] | 0.052 | 20
CN(CCN)Cc1cccc(-c2ccc(C(=O)NC3CCOCC3)c(N(C)CC3CC3)c2)c1 [Compound 245] | 0.0536 | 20
CNCCN(C)Cc1cccc(-c2cc(-c3ccc(O)cc3)c3cnn(C(C)C)c3n2)c1 [Compound 247] | 0.0547 | 20
CNCCN(C)Cc1cccc(-c2cc(C(=O)N3CCC3)c3cnn(C(C)C)c3n2)c1 [Compound 252] | 0.0593 | 20
CCn1ncc2c(C(=O)NC3CCOCC3)cc(-c3cccc(CN(C)CCNC)c3)nc21 [Compound 253] | 0.0613 | 6.09
CCN(Cc1cccnc1)C(=O)c1cc(-c2cccc(CN(C)CCNC)c2)nc2c1cnn2C(C)C [Compound 254] | 0.0618 | 5.52
CCNC(=O)c1cc(-c2cccc(CN(C)CCNC)c2)nc2c1cnn2C(C)C [Compound 255] | 0.0623 | 3.87
